Measured values taken from patent publication US20120004244A1, “Bis Aromatic Compounds for Use as LTC4 Synthase Inhibitors” (BIOLIPOX AB, priority 2009, published 2012).

Target: T1, Recombinant human LTC4 synthase (Homo sapiens, UniProt Q16873)
T1 construct: made in house; host or cells: Pichia pastoris ('Piccia pastoralis' [sic])
T1 sequence (Q16873 1-150): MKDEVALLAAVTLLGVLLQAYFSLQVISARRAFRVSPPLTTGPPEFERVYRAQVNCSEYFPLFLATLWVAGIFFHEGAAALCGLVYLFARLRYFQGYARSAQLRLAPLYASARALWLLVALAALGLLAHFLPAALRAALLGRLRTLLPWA
Assay: LTC4 synthase in vitro assay (LTA4 to LTC4, HTRF detection)
Type: biochemical
Settings: for inhibition at 10 µM: 5 min, total concentration of title compound in the assay 10 μM
Outline: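 Purified recombinant human LTC4 synthase expressed in Pichia (0.5 μg/mL total protein) was preincubated with inhibitor at 10 μM final for 10 min at room temperature in PBS pH 7.4 with 5 mM GSH. LTA4 was then added at 2.5 μM final, and after 5 min at room temperature LTC4 was detected by HTRF.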

Row | IC50 | inhibition at 10 µM | Compound
1 | 219 nM | – | COc1cccc(COc2ccc(C(=O)c3ccc(N(C)c4ccc(Cl)cc4)cn3)cc2C(=O)O)c1 [12:6, 5-{5-[(4-Chlorophenyl)(methyl)amino]picolinoyl}-2-(3-methoxybenzyloxy)-benzoic acid]
2 | 375 nM | – | CN(c1ccc(Cl)cc1)c1ccc(C(=O)c2ccc(OCc3ccccc3)c(C(=O)O)c2)nc1 [12:7, 2-Benzyloxy-5-{5-[(4-chlorophenyl)(methyl)amino]picolinoyl}benzoic acid]
3 | 116 nM | 98% | CN(c1ccc(Cl)cc1)c1ccc(C(=O)c2ccc(-n3nncc3-c3ccccc3)c(C(=O)O)c2)nc1 [17:1, 5-{5-[(4-Chlorophenyl)(methyl)amino]picolinoyl}-2-(5-phenyl-1,2,3-triazol-1-yl)-benzoic acid]
4 | 45 nM | 100% | O=C(c1ccc(-n2nncc2-c2ccccc2)c(C(=O)O)c1)c1ccc(N(CC2CC2)c2ccc(Cl)cc2)cn1 [17:3, 5-{5-[(4-Chlorophenyl)(cyclopropylmethyl)amino]picolinoyl}-2-(5-phenyl-1,2,3-triazol-1-yl)benzoic acid]
5 | 16 nM | – | O=C(c1ccc(-n2nncc2-c2cccc(Cl)c2)c(C(=O)O)c1)c1ccc(N(CC2CC2)c2ccc(Cl)cc2)cn1 [17:4, 5-{5-[(4-Chlorophenyl)(cyclopropylmethyl)amino]picolinoyl}-2-(5-(3-chlorophenyl)-1,2,3-triazol-1-yl)benzoic acid]
6 | 56 nM | – | O=C(c1ccc(-n2nncc2-c2ccc(F)cc2)c(C(=O)O)c1)c1ccc(N(CC2CC2)c2ccc(Cl)cc2)cn1 [17:5, 5-{5-[(4-Chlorophenyl)(cyclopropylmethyl)amino]picolinoyl}-2-(5-(4-fluorophenyl)-1,2,3-triazol-1-yl)benzoic acid]
7 | 107 nM | – | O=C(c1ccc(-n2nncc2-c2ccccn2)c(C(=O)O)c1)c1ccc(N(CC2CC2)c2ccc(Cl)cc2)cn1 [17:6, 5-{5-[(4-Chlorophenyl)(cyclopropylmethyl)amino]picolinoyl}-2-(5-(pyridin-2-yl)-1,2,3-triazol-1-yl)benzoic acid]
8 | 297 nM | – | O=C(c1ccc(-n2nc(C(F)(F)F)cc2-c2ccccc2)c(C(=O)O)c1)c1ccc(N(CC2CC2)c2ccc(Cl)cc2)cn1 [18:1, 5-{5-[(4-Chlorophenyl)(cyclopropylmethyl)amino]picolinoyl}-2-(5-phenyl-3-trifluoro-methylpyrazol-1-yl)benzoic acid]
9 | 104 nM | – | CN(c1ccc(Cl)cc1)c1ccc(C(=O)c2ccc(-n3nc(-c4ccccc4)cc3C(F)(F)F)c(C(=O)O)c2)nc1 [18:2, 5-{5-[(4-Chlorophenyl)(methyl)amino]picolinoyl}-2-(3-phenyl-5-trifluoro-methylpyrazol-1-yl)benzoic acid]
10 | 177 nM | – | CN(c1ccc(Cl)cc1)c1ccc(C(=O)c2ccc(-n3nc(C(F)(F)F)cc3-c3ccccc3)c(C(=O)O)c2)nc1 [18:3]
11 | 65 nM | – | O=C(c1ccc(-n2nc(-c3ccccc3)cc2C(F)(F)F)c(C(=O)O)c1)c1ccc(N(CC2CC2)c2ccc(Cl)cc2)cn1 [18:4, 5-{5-[(4-Chlorophenyl)(cyclopropylmethyl)amino]picolinoyl}-2-(3-phenyl-5-trifluoromethylpyrazol-1-yl)benzoic acid]
12 | 116 nM | – | CN(c1ccc(Cl)cc1)c1ccc(C(=O)c2ccc(-n3nc(-c4cccc(Cl)c4)cc3C(F)(F)F)c(C(=O)O)c2)nc1 [18:5, 5-{5-[(4-Chlorophenyl)(methyl)amino]picolinoyl}-2-[3-(3-chlorophenyl)-5-trifluoromethylpyrazol-1-yl]benzoic acid]
13 | 115 nM | – | CN(c1ccc(Cl)cc1)c1ccc(C(=O)c2ccc(-n3nc(-c4ccc(Cl)cc4)cc3C(F)(F)F)c(C(=O)O)c2)nc1 [18:6, 5-{5-[(4-Chlorophenyl)(methyl)amino]picolinoyl}-2-[3-(4-chlorophenyl)-5-trifluoromethylpyrazol-1-yl]benzoic acid]
14 | 250 nM | – | CN(c1ccc(Cl)cc1)c1ccc(C(=O)c2ccc(-n3nc(C(F)(F)F)cc3-c3ccc(Cl)cc3)c(C(=O)O)c2)nc1 [18:7, 5-{5-[(4-Chlorophenyl)(methyl)amino]picolinoyl}-2-[5-(4-chlorophenyl)-3-trifluoromethylpyrazol-1-yl]benzoic acid]
15 | 235 nM | – | Cc1cn(-c2ccc(C(=O)c3ccc(N(C)c4ccc(Cl)cc4)cn3)cc2C(=O)O)c(-c2ccccc2)n1 [19:1, 5-{5-[(4-Chlorophenyl)(methyl)amino]picolinoyl}-2-(4-methyl-2-phenylimidazol-1-yl)benzoic acid]
16 | 486 nM | – | CN(c1ccc(Cl)cc1)c1ccc(C(=O)c2ccc(-n3ccnc3-c3ccccc3)c(C(=O)O)c2)nc1 [19:2, 5-{5-[(4-Chlorophenyl)(methyl)amino]picolinoyl}-2-(2-phenylimidazol-1-yl)benzoic acid]
17 | 163 nM | – | CN(c1ccc(Cl)cc1)c1ccc(C(=O)c2ccc(-n3cccc3-c3cccc(Cl)c3)c(C(=O)O)c2)nc1 [20:1, 5-{5-[(4-Chlorophenyl)(methyl)amino]picolinoyl}-2-{2-(3-chlorophenyl)pyrrol-1-yl}benzoic acid]
18 | 64 nM | – | CN(c1ccc(Cl)cc1)c1ccc(C(=O)c2ccc(-n3cccc3-c3ccccc3)c(C(=O)O)c2)nc1 [20:2, 5-{5-[(4-Chlorophenyl)(methyl)amino]picolinoyl}-2-(2-phenylpyrrol-1-yl)benzoic acid]
19 | 138 nM | – | CN(c1ccc(Cl)cc1)c1ccc(C(=O)c2ccc(-c3ccccc3C(F)(F)F)c(C(=O)O)c2)nc1 [21:1, 4-{5-[(4-Chlorophenyl)methylamino]pyridine-2-carbonyl}-2′-trifluoromethyl-biphenyl-2-carboxylic acid]
20 | 261 nM | – | CN(c1ccc(Cl)cc1)c1ccc(C(=O)c2ccc(-c3ccc(Cl)cc3Cl)c(C(=O)O)c2)nc1 [21:2, 2′,4′-Dichloro-4-{5-[(4-chlorophenyl)(methyl)amino]picolinoyl}biphenyl-2-carboxylic acid]
21 | 349 nM | – | CN(c1ccc(Cl)cc1)c1ccc(C(=O)c2ccc(-c3ccccc3Cl)c(C(=O)O)c2)nc1 [21:3, 2′-Chloro-4-{5-[(4-chlorophenyl)(methyl)amino]picolinoyl}biphenyl-2-carboxylic acid]
22 | 704 nM | – | CN(c1ccc(Cl)cc1)c1ccc(C(=O)c2ccc(-c3cccc(Cl)c3)c(C(=O)O)c2)nc1 [21:4, 3′-Chloro-4-{5-[(4-chlorophenyl)(methyl)amino]picolinoyl}biphenyl-2-carboxylic acid]
23 | 384 nM | – | CN(c1ccc(Cl)cc1)c1ccc(C(=O)c2ccc(-c3ccccc3OCC3CC3)c(C(=O)O)c2)nc1 [21:5, 4-{5-[(4-Chlorophenyl)(methyl)amino]picolinoyl}-2′-(cyclopropylmethoxy)-biphenyl-2-carboxylic acid]
24 | 217 nM | – | CN(c1ccc(Cl)cc1)c1ccc(C(=O)c2ccc(-c3ccccc3OC(F)(F)F)c(C(=O)O)c2)nc1 [21:6, 4-{5-[(4-chlorophenyl)(methyl)amino]picolinoyl}-2′-trifluoromethoxy-biphenyl-2-carboxylic acid]
25 | 269 nM | – | CN(c1ccc(Cl)cc1)c1ccc(C(=O)c2ccc(-c3cc(Cl)ccc3Cl)c(C(=O)O)c2)nc1 [21:7, 2′,5′-Dichloro-4-{5-[(4-chlorophenyl)(methyl)amino]picolinoyl}biphenyl-2-carboxylic acid]
26 | 244 nM | – | CN(c1ccc(Cl)cc1)c1ccc(C(=O)c2ccc(-c3ccccc3-c3ccccc3)c(C(=O)O)c2)nc1 [21:8, 4-{5-[(4-Chlorophenyl)(methyl)amino]picolinoyl}[1,1′;2′,1″]terphenyl-2-carboxylic acid]
27 | 511 nM | – | CN(c1ccc(Cl)cc1)c1ccc(C(=O)c2ccc(-c3cccc(-c4ccccc4)c3)c(C(=O)O)c2)nc1 [21:9, 4-{5-[(4-Chlorophenyl)(methyl)amino]picolinoyl}[1,1′;2′,1″]terphenyl-2-carboxylic acid[1,1′;3′,1″]terphenyl-2-carboxylic acid]
